From patent publication US9006452B2, “Method for imaging zinc activation within a mitochondrion using a two-photon fluorescent probe, and method for manufacturing the two-photon fluorescent probe” (AJOU University Industry-Academic Cooperation Foundation, priority 2011, dated 2015)

What was measured:
[1] = Optical and physical properties of the two-photon fluorescent probe in MOPS buffer; format: physicochemical; conditions: absence of Zn2+
Protocol: In order to investigate optical and physical properties of the two-photon fluorescent probe (SZn-Mito), the following experiment was carried out by using a MOPS (3-(N-morpholino)propane sulfonic acid) buffer.
(§1) It was predicted as a result of blocking the photo-induced electron transfer (PeT) process caused by complexation with metal ions.

[2] = One- and two-photon fluorescence titration with free Zn2+ (dissociation constant, fluorescence enhancement factor); format: binding
Protocol: as §1
As a result of measuring a fluorescence increase factor (FEF=(F−Fmin)/Fmin) value of the two-photon fluorescent probe (SZn-Mito) by one- and two-photon processes, the FEF value was represented as 7 in the presence of excessive zinc ions (Table 1).
MOPS (4-morpholinepropanesulfonic acid) buffers (30 mM, pH 7.2, 0.1 M KCl) including varying amounts of ZnSO4 and 10 mM EGTA (ethylene glycol-bis(2-aminoethylether)-N,N,N′,N′-tetraacetic acid) were prepared.
The concentration of free Zn^2+ ([Zn^2+]free) was calculated from KZn-EGTA^app,[EGTA] total, and [Zn^2+]total by using following Equation 1:
After that, the stability constant of a Zn^2+ complex of EGTA (KZn-EGTA) was obtained by a conventional method known in the art. As a result, for EGTA (pH 7.2, 0.1 M KCl, 25[…]), pK1=9.40, pK2=8.79, pK3=2.70, and log KZn-EGTA=12.6 were obtained.
All protonation constants at 0.1 M ion strength workout were corrected upward by 0.11, [EGTA]total was fixed at 10 mM, and [Zn^2+]total was in the range from 0 to 9.5 mM.
In order to clearly determine a dissociation constant of the two-photon fluorescent probe, FIG. 2c as a fluorescence titration curve was obtained from FIG. 2b by using following Equation 2.
wherein F is a fluorescence intensity. Fmax is a maximum fluorescence intensity, Fo is a fluorescence intensity in the absence of Zn^2+, and [Zn^2+]free is a concentration of free Zn^2+.
Kd values that well complies with the titration curve (FIG. 2c) according to Equation 2 were calculated by using a commercial Origin software. […] A two-photon excitation fluorescence titration curve was obtained, which was fitted to Equation 2 (FIGS. 2c and 2d).

[3] = Selectivity for metal cations in MOPS buffer; format: physicochemical; conditions: MOPS buffer pH 7.2, 1.0 μM probe
Protocol: The selectivity for metal cations was determined by using the MOPS buffer (30 mM MOPS, 100 mM KCl, 10 mM EGTA, pH 7.2) including the two-photon fluorescent probe. […] However, because there are very little metal ions such as Co^2+, Ni^2+ and Cu^2+ inside the cells, the two-photon fluorescent probe of the present invention has an advantage that it can detect zinc ions (Zn^2+) without the interference caused by competition with other metal ions.

[4] = Effect of pH on one-photon fluorescence intensity; format: physicochemical; conditions: physiological pH; absence and presence of free Zn2+
[5] = test system: HeLa cells; test: Toxicity test using a CCK-8 kit; format: cell-based
Excerpt: In order to confirm whether the two-photon fluorescent probe of the present invention can detect intracellular zinc ions, the effect of the two-photon fluorescent probe (SZn-Mito) on the cells was examined by the following toxicity test.

[6] = test system: HeLa cells; test: Light stability of TPEF intensity in labeled HeLa cells; format: cell-based; conditions: exposure 60 min
[7] = test system: zinc ions within the mitochondria of HeLa cells; test: Two-photon microscopy monitoring of zinc ion changes in living HeLa cells; format: cell-based
Protocol: TPEF images were collected at a range from 425-575 nm (fs pulses, 760 nm excitation conditions);
When DTDP (2,2′-dithiodipyridine; […]), reagent capable of inducing dissociation of Zn^2+ ions from Zn^2+-binding proteins, was added to the HeLa cells labeled with the two-photon fluorescent probe (SZn-Mito), the TPEF intensity was increased. When CCCP (carbonyl cyanide m-chlorophenylhydrazone; […]), a compound capable of disrupting a transmembrane potential difference of the mitochondria and increasing the release of cations within the mitochondria, was added thereto, the TPEF intensity was decreased. Also, when the HeLa cells were treated with […] (2-mercaptopyridine N-oxide), a reagent capable of delivering Zn^2+ to the cytoplasm, the TPEF intensity was increased, and when they were treated with CCCP, the TPEF intensity was decreased (FIG. 1).

CN(CC(=O)NCC[P+](c1ccccc1)(c1ccccc1)c1ccccc1)c1ccc2cc(-c3nc4ccc(NCCN(Cc5ccccn5)Cc5ccccn5)cc4s3)ccc2c1 [SZn-Mito]
λmax(1), one-photon absorption spectra ([1]; 30 mM MOPS, 100 mM KCl, 10 mM EGTA, pH 7.2): 388 nm | λmax fl, one-photon emission spectra ([1]; MOPS buffer pH 7.2): 500 nm | 10^−4 ε, molar excitation coefficient ([1]; MOPS buffer pH 7.2, value is 10^−4 ε): 1.87 M^−1cm^−1 | F, fluorescence quantum yield ([1]; MOPS buffer pH 7.2, ±15%): 0.15 | detection limit for Zn2+ ([2]; from fluorescence titration): nM range | FEF, fluorescence enhancement factor (F−Fmin)/Fmin, one-photon process ([2]; one-photon, presence of excessive zinc ions): 7 | FEF, fluorescence enhancement factor (F−Fmin)/Fmin, two-photon process ([2]; two-photon, presence of excessive zinc ions): 7 | fluorescence in the presence of Co2+, Ni2+ and Cu2+ [3]: fluorescence was decreased | selectivity for Cd2+ [3]: relatively high selectivity for Cd^2+ | selectivity for Zn2+ compared with Na+, K+, Ca2+, Mg2+, Mn2+, Fe2+ and Fe3+ [3]: higher selectivity for Zn^2+ | reaction to pH (fluorescence intensity) [4]: unreacted at physiological pH | toxicity to cells (CCK-8 kit) [5]: negligible and extremely low toxicity | change of TPEF intensity under continuous fs-pulse radiation (light stability) [6]: not decreased at all | TPEF intensity after treatment with Zn2+ and pyrithione ([7]; HeLa cells, 100 mM Zn2+ and 100 mM pyrithione): increased | TPEF intensity after addition of CCCP ([7]; labeled HeLa cells after DTDP, CCCP 10 mM): decreased | TPEF intensity after addition of DTDP ([7]; labeled HeLa cells, DTDP 150 mM): increased
